Experimental data as given in patent US20240174655A1, “INDAZOLE DERIVATIVES AS ANTAGONISTS OF THE MUSCARINIC ACETYLCHOLINE RECEPTOR M4” (Vanderbilt University, priority 2021, published 2024).
Read-outs that look alike come from different tables or passages of the source.

Target: T1, Human M4 (Homo sapiens, UniProt P08173)
T1 construct: expressed in transfected cells; host or cells: CHO-K1 (Chinese hamster ovary, ATCC), stably expressing M4 and Gqi5
T1 sequence (P08173 1-479): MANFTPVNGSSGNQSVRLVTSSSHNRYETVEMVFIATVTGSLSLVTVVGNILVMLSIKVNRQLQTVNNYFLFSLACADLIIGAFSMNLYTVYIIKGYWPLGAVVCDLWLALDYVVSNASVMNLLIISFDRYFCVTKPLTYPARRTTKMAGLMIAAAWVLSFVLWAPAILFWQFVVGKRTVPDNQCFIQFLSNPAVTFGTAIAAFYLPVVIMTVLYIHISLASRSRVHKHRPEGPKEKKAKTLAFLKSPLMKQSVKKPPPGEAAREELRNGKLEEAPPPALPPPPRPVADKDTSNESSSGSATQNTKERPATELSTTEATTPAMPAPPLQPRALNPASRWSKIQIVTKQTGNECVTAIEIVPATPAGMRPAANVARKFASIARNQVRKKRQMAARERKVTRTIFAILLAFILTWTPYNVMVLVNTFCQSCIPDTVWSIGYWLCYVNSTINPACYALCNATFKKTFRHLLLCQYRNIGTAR
Experiment: mAChR M4 cell-based functional assay (calcium flux, EC80 acetylcholine response)
Experimental: Human or rat M4 cDNA, along with the chimeric G protein Gqi5, were transfected into Chinese hamster ovary (CHO-K1) cells purchased from the American Type Culture Collection using Lipofectamine2000. M4/Gqi5/CHO cells were grown in Ham's F-12 medium containing […] heat-inactivated fetal bovine serum (FBS), 20 mM HEPES, 500 μg/mL G418 sulfate, and 200 μg/mL Hygromycin B.
For high throughput measurement of agonist-evoked increases in intracellular calcium, CHO-K1 cells stably expressing muscarinic receptors were plated in growth medium lacking G418 and hygromycin at 15,000 cells/20 μL/well in Greiner 384-well black-walled, tissue culture (TC)-treated, clear-bottom plates (VWR). Cells were incubated overnight at 37° C. and 500 CO2. […] Compound master plates were formatted in a 10 point concentration-response curve (CRC) format (1:3 dilutions) in 100% DMSO with a starting concentration of 10 or 1 mM using a BRAVO liquid handler (Agilent). Test compound CRCs were then transferred to daughter plates (240 nL) using the Echo acoustic plate reformatter (Labcyte, Sunnyvale, CA) and then diluted into assay buffer (40 μL) to a 2× stock using a Thermo Fisher Combi (Thermo Fisher Scientific, Waltham, MA).
Calcium flux was measured using the Functional Drug Screening System (FDSS) 6000 or 7000 (Hamamatsu Corporation, Tokyo, Japan) as an increase in the fluorescent static ratio. Compounds were applied to cells (20 μL, 2×) using the automated system of the FDSS at 2 seconds into the protocol and the data were collected at 1 Hz. […] Agonist activity was analyzed as a concentration-dependent increase in calcium mobilization upon compound addition. Positive allosteric modulator activity was analyzed as a concentration-dependent increase in the EC20 acetylcholine response. Antagonist activity was analyzed as a concentration-dependent decrease in the EC80 acetylcholine response; for the purposes of the tables herein, an IC50 (inhibitory concentration 50) was calculated as a concentration-dependent decrease of the response elicited by an EC80 concentration of acetylcholine. Concentration-response curves were generated using a four-parameter logistical equation in XLFit curve fitting software (IDBS, Bridgewater, NJ) for Excel (Microsoft, Redmond, WA) or Prism (GraphPad Software, Inc., San Diego, CA) or the Dotmatics software platform (Dotmatics, Bishop's Stortford, UK).
Compounds were synthesized as described above.

[1] = M4/Gqi5/CHO-K1 cells, % ACh maximum at 30 μM, read-out: Human M4 Emin (% ACh maximum at 30 μM)
[2] = M4/Gqi5/CHO-K1 cells, decrease of the response to an EC80 concentration of acetylcholine, read-out: Human M4 IC50

Compound	remaining activity at 30 µM [1] [%]	IC50 [2] [nM]	IC50 [nM]	remaining activity at 30 µM (CHO-K1, read-out: Human M4 Emin (% ACh maximum at 30 μM)) [%]
[2H]C1([2H])CC(C([2H])([2H])N2C[C@H]3C[C@H](Nc4nnc(-c5ccc6nn(C)cc6c5C)cc4C)C[C@H]3C2)CC([2H])([2H])O1 [compound 24, (3aR,5s,6aS)-N-(6-(2,4-dimethyl-2H-indazol-5-yl)-4-methylpyridazin-3-yl)-2-((tetrahydro-2H-pyran-4-yl-2,2,6,6-d4)methyl-d2)octahydrocyclopenta[c]pyrrol-5-amine]	3	0.21		
Cc1cc2nn(C)cc2cc1-c1ccc(N[C@H]2C[C@@H]3CN(CC4CCOCC4)C[C@@H]3C2)nn1 [compound 1, (3aR,5s,6aS)-N-(6-(2,6-dimethyl-2H-indazol-5-yl)pyridazin-3-yl)-2-((tetrahydro-2H-pyran-4-yl)methyl)octahydrocyclopenta[c]pyrrol-5-amine]	3	2.7		
[2H]C([2H])(C1CC(C)(C)OC(C)(C)C1)N1C[C@H]2C[C@H](Nc3ccc(-c4ccc5nn(C)cc5c4C)nn3)C[C@H]2C1 [compound 19, (3aR,5s,6aS)-N-(6-(2,4-dimethyl-2H-indazol-5-yl)pyridazin-3-yl)-2-((2,2,6,6-tetramethyltetrahydro-2H-pyran-4-yl)methyl-d2)octahydrocyclopenta[c]pyrrol-5-amine]	5	5		
Cc1c(-c2ccc(N[C@H]3C[C@@H]4CN(CC5CCOCC5)C[C@@H]4C3)nn2)ccc2nn(C)cc12 [compound 2, (3aR,5s,6aS)-N-(6-(2,4-dimethyl-2H-indazol-5-yl)pyridazin-3-yl)-2-((tetrahydro-2H-pyran-4-yl)methyl)octahydrocyclopenta[c]pyrrol-5-amine]	4	0.41		
[2H]C([2H])([C@H]1CCCOC1)N1C[C@H]2C[C@H](Nc3ccc(-c4ccc5nn(C)cc5c4C)nn3)C[C@H]2C1 [compound 14, (3aR,5s,6aS)-N-(6-(2,4-dimethyl-2H-indazol-5-yl)pyridazin-3-yl)-2-(((R)-tetrahydro-2H-pyran-3-yl)methyl-d2)octahydrocyclopenta-[c]pyrrol-5-amine]	3	0.79		
[2H]C([2H])([C@H]1CCCCO1)N1C[C@H]2C[C@H](Nc3ccc(-c4ccc5nn(C)cc5c4C)nn3)C[C@H]2C1 [compound 11, (3aR,5s,6aS)-N-(6-(2,4-dimethyl-2H-indazol-5-yl)pyridazin-3-yl)-2-(((R)-tetrahydro-2H-pyran-2-yl)-methyl-d2)octahydrocyclopenta[c]pyrrol-5-amine]	2	0.41		
COc1cc(-c2ccc3nn(C)cc3c2C)nnc1N[C@H]1C[C@@H]2CN(CC3CCOCC3)C[C@@H]2C1 [compound 26, (3aR,5s,6aS)-N-(6-(2,4-dimethyl-2H-indazol-5-yl)-4-methoxypyridazin-3-yl)-2-((tetrahydro-2H-pyran-4-yl)-methyl)octahydrocyclopenta[c]pyrrol-5-amine]	4	0.79		
[2H]C([2H])(N1C[C@H]2C[C@H](Nc3ccc(-c4ccc5nn(C)cc5c4C)nn3)C[C@H]2C1)C(F)(F)C1CCOCC1 [compound 23, (3aR,5s,6aS)-2-(2,2-difluoro-2-(tetrahydro-2H-pyran-4-yl)ethyl-1,1-d2)-N-(6-(2,4-dimethyl-2H-indazol-5-yl)-pyridazin-3-yl)octahydrocyclopenta[c]pyrrol-5-amine]	4	1.8		
[2H]C1([2H])CC(C([2H])([2H])N2C[C@H]3C[C@H](Nc4ccc(-c5ccc6nn(C)cc6c5C)nn4)C[C@H]3C2)CC([2H])([2H])O1 [compound 21, (3aR,5s,6aS)-N-(6-(2,4-dimethyl-2H-indazol-5-yl)pyridazin-3-yl)-2-((tetrahydro-2H-pyran-4-yl-2,2,6,6-d4)methyl-d2)octahydrocyclopenta[c]pyrrol-5-amine]	3	0.4		
[2H]C([2H])(N1C[C@H]2C[C@H](Nc3ccc(-c4ccc5nn(C)cc5c4C)nn3)C[C@H]2C1)C1(F)CCOCC1 [compound 20, (3aR,5s,6aS)-N-(6-(2,4-dimethyl-2H-indazol-5-yl)pyridazin-3-yl)-2-((4-fluorotetrahydro-2H-pyran-4-yl)methyl-d2)octahydrocyclopenta[c]pyrrol-5-amine]	4	0.99		
[2H]C([2H])([2H])N(c1cc(C(F)(F)F)c(-c2ccc3nn(C)cc3c2C)nn1)[C@H]1C[C@@H]2CN(CC3CCOCC3)C[C@@H]2C1 [compound 5, (3aR,5s,6aS)-N-(6-(2,4-dimethyl-2H-indazol-5-yl)-5-(trifluoromethyl)pyridazin-3-yl)-N-(methyl-d3)-2-((tetrahydro-2H-pyran-4-yl)methyl)octahydrocyclopenta[c]pyrrol-5-amine]	3	130		
[2H]C([2H])([C@@H]1COCCO1)N1C[C@H]2C[C@H](Nc3ccc(-c4ccc5nn(C)cc5c4C)nn3)C[C@H]2C1 [compound 16, (3aR,5s,6aS)-2-(((R)-1,4-dioxan-2-yl)-methyl-d2)-N-(6-(2,4-dimethyl-2H-indazol-5-yl)pyridazin-3-yl)octahydrocyclopenta[c]pyrrol-5-amine]	3	8.9		
Cn1cc2c(C(F)(F)F)c(-c3ccc(N[C@H]4C[C@@H]5CN(CC6CCOCC6)C[C@@H]5C4)nn3)ccc2n1 [compound 7, (3aR,5s,6aS)-N-(6-(2-methyl-4-(trifluoromethyl)-2H-indazol-5-yl)pyridazin-3-yl)-2-((tetrahydro-2H-pyran-4-yl)methyl)octahydrocyclopenta[c]pyrrol-5-amine]	3	1.5		
Cc1cc(N[C@H]2C[C@@H]3CN(CC4CCOCC4)C[C@@H]3C2)nnc1-c1ccc2nn(C)cc2c1C [compound 27, (3aR,5s,6aS)-N-(6-(2,4-dimethyl-2H-indazol-5-yl)-5-methylpyridazin-3-yl)-2-((tetrahydro-2H-pyran-4-yl)methyl)octahydrocyclopenta[c]pyrrol-5-amine]	3	0.76		
Cc1c(-c2nnc(N[C@H]3C[C@@H]4CN(CC5CCOCC5)C[C@@H]4C3)c3ccsc23)ccc2nn(C)cc12 [compound 25, 7-(2,4-dimethyl-2H-indazol-5-yl)-N-((3aR,5s,6aS)-2-((tetrahydro-2H-pyran-4-yl)methyl)-octahydrocyclopenta[c]pyrrol-5-yl)-thieno[2,3-d]pyridazin-4-amine]			0.5	7
Cc1c(-c2ccc(N[C@H]3C[C@@H]4CN(Cc5ccccn5)C[C@@H]4C3)nn2)ccc2nn(C)cc12 [compound 4, (3aR,5s,6aS)-N-(6-(2,4-dimethyl-2H-indazol-5-yl)pyridazin-3-yl)-2-(pyridin-2-ylmethyl)octahydrocyclopenta[c]pyrrol-5-amine]	3	2.2		
[2H]C([2H])([C@H]1COCCO1)N1C[C@H]2C[C@H](Nc3ccc(-c4ccc5nn(C)cc5c4C)nn3)C[C@H]2C1 [compound 15, (3aR,5s,6aS)-2-(((S)-1,4-dioxan-2-yl)-methyl-d2)-N-(6-(2,4-dimethyl-2H-indazol-5-yl)-pyridazin-3-yl)octahydrocyclopenta[c]pyrrol-5-amine]	3	0.42		
